# Reference: patent US20140039053A1, “THERAPEUTIC AGENT FOR DIASTOLIC CONGESTIVE HEART FAILURE” (Mochida Pharmaceutical Co., Ltd., priority 2011, published 2014)
# Tests used:
# [1] = system: diastolic congestive heart failure patients; assay: Echocardiographic evaluation of diastolic function in diastolic congestive heart failure patients, EPA-E-administered vs non-administered group (Example 2); assay type: in vivo, human; conditions: target cases E′ <8 cm/s (18 cases)
# [2] = system: diastolic congestive heart failure patients; assay: as above; assay type: in vivo, human
# Description: Diastolic congestive heart failure patients were targeted and divided into an EPA-E-administered group and an EPA-E-non-administered group. The EPA-E-administered group received the oral administration of EPA-E (trade name: Epadel; manufactured by Mochida Pharmaceutical Co., Ltd.) at a daily dose of 1800 mg for 6 months. The EPA-E-non-administered group received neither EPA nor its derivative during the test period. Another hypotensive or antilipidemic agent was not administered to any of these groups during the test period. The diastolic function of each patient was evaluated by echocardiography before the start of the test and after the completion of the test (6 months later). The evaluation items used were 1) a ratio of a peak filling velocity of early diastolic transmitral flow (a peak filling velocity of mitral inflow during early diastole: E) to a peak filling velocity of atrial systolic transmitral flow (a peak filling velocity of mitral inflow during atrial contraction: A) (E/A ratio), 2) the time required for the peak filling velocity of mitral inflow during early diastole to reach zero (deceleration time: DT), 3) an early diastolic mitral annulus velocity (E), and 4) an E/E′ ratio. The degree of improvement in these indexes was confirmed for each case corresponding to 1) an E/A ratio<1.0, 2) DT>250 msec, 3) E′<8 cm/s, or 4) an E/E′ ratio>15 as an index for cardiac diastolic dysfunction. The rate of change was determined as an average of % change from the value (defined as 100) before the start to the value after 6 months in each case.
# [3] = printed as reduction (improvement), average of % change per case, before start to 6 months, 1800 mg/day oral
# [4] = printed as rise (improvement), average of % change per case, before start to 6 months, 1800 mg/day oral
compound,measurement,setting,value
"CC/C=C\C/C=C\C/C=C\C/C=C\C/C=C\CCCC(=O)OCC [EPA-E, icosapentaenoic acid ethyl ester]","E′ (early diastolic mitral annular velocity), mean after 6 months","[1]; EPA-E 1800 mg/day oral, 6 months",4.539 cm/s
same,"E′ (early diastolic mitral annular velocity), mean before start",[1]; baseline before EPA-E 1800 mg/day oral,4.483 cm/s
same,"DT, rate of change",[2]; [3],10.9% reduction
same,"E/E′ ratio, rate of change",[2]; [3],27.4% reduction
same,"E/A ratio, rate of change",[2]; [4],3.7% rise
same,"E′, rate of change",[2]; [4],2.3% rise
same,"DT (deceleration time), mean after 6 months","[2]; target cases DT >250 msec (6 cases), EPA-E 1800 mg/day oral, 6 months",241.7 ms
same,"DT (deceleration time), mean before start","[2]; target cases DT >250 msec (6 cases), baseline before EPA-E 1800 mg/day oral",271.3 ms
same,"E/A ratio, mean after 6 months","[2]; target cases E/A ratio <1.0 (14 cases), EPA-E 1800 mg/day oral, 6 months",0.692
same,"E/A ratio, mean before start","[2]; target cases E/A ratio <1.0 (14 cases), baseline before EPA-E 1800 mg/day oral",0.669
same,"E/E′ ratio, mean after 6 months","[2]; target cases E/E′ ratio >15 (4 cases), EPA-E 1800 mg/day oral, 6 months",13.14
same,"E/E′ ratio, mean before start","[2]; target cases E/E′ ratio >15 (4 cases), baseline before EPA-E 1800 mg/day oral",18.09
